This assay has as its target T1, cIAP1 BIR3 domain (Homo sapiens, UniProt Q13490).
T1 construct: gene BIRC2; isolated purified BIR3 domain
The assay can be described thus: fluorescence polarization assay. To be noted: read-out: cIAP1 BIR3 binding (Ki, nmol/l). The source says: fluorescence polarization assay on cIAP1 BIR3 domain

T1 sequence (Q13490 260-352 limits assumed): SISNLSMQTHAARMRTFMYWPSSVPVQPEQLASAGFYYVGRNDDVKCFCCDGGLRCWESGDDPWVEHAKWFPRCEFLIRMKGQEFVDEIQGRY

As for `CN[C@@H](C)C(=O)N[C@H](C(=O)N1C[C@@H](O)C[C@H]1Cc1c(-c2[nH]c3cc(F)ccc3c2C[C@@H]2C[C@H](O)CN2C(=O)[C@@H](NC(=O)[C@H](C)NC)[C@@H](C)OC)[nH]c2cc(F)ccc12)[C@@H](C)OC` [B2], the Ki was roughly 1 nmol/L.

Consider `CN[C@@H](C)C(=O)N[C@H](C(=O)N1C[C@@H](O)C[C@H]1Cc1c(-c2[nH]c3cc(F)ccc3c2C[C@@H]2C[C@H](O)CN2C(=O)[C@@H](NC(=O)[C@H](C)NC)C(C)(C)C)[nH]c2cc(F)ccc12)C(C)(C)C` [B3], for which the Ki is roughly 1 nmol/L.

`CC[C@H](NC(=O)[C@H](C)NC)C(=O)N1C[C@@H](O)C[C@H]1Cc1c[nH]c2cc(F)ccc12` [M1]: the Ki was roughly 1 nmol/L.

For `CN[C@@H](C)C(=O)N[C@H](C(=O)N1C[C@@H](O)C[C@H]1Cc1c[nH]c2cc(F)ccc12)[C@@H](C)OC` [M2], the Ki was roughly 1 nmol/L.

`CN[C@@H](C)C(=O)N[C@H](C(=O)N1C[C@@H](O)C[C@H]1Cc1c[nH]c2cc(F)ccc12)C(C)(C)C` [M3]: the Ki was roughly 1 nmol/L.

These data come from publication PMC5238498, “Bivalent IAP antagonists, but not monovalent IAP antagonists, inhibit TNF-mediated NF-κB signaling by degrading TRAF2-associated cIAP1 in cancer cells” (Cell Death Discovery, 2017).
